The term Ki denotes the equilibrium dissociation constant of an inhibitor or competing ligand from its target. A low value points to higher affinity.

This test concerns the target T1, human adrenergic α1A receptor (Homo sapiens, UniProt P35348).
T1 construct: expressed in transfected cells; host or cells: HEK293T cells, transient transfection
T1 sequence (P35348 1-466): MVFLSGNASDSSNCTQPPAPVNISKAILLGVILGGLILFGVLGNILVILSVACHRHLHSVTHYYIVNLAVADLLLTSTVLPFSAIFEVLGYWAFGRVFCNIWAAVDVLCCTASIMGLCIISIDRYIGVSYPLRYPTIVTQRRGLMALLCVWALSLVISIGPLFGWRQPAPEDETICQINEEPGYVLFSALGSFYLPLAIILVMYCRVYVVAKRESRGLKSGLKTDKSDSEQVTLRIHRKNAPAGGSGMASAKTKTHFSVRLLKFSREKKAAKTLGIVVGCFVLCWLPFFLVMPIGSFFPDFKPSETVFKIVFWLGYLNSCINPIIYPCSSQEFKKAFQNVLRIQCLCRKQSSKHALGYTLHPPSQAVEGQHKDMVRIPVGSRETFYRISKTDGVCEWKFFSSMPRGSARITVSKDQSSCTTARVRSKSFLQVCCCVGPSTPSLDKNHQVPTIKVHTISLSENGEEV
Briefly: Competition binding, [3H]prazosin, HEK293T membranes. To be noted: ± SD of two experiments.

In turn, `CCc1ccc(OC)c(C(=O)NC[C@@H]2CCCN2CC)c1O` [dechloroeticlopride, (S)-3-Ethyl-N-[(1-ethylpyrrolidin-2-yl)methyl]-2-hydroxy-6-methoxybenzamide, reference compound] registered a Ki of 880 ± 150 nM.
